Earlier results on 1 compound are cited in patent publication US10328111B2, “Water-soluble phytocannabinoid formulations” (Solva, LLC, priority 2014, dated 2019).

Take `C=C(C)[C@@H]1CCC(C)=C[C@H]1c1c(O)cc(CCCCC)cc1O` [cannabidiol]: the oral bioavailability entry is given as “about 6%”.
